Values of other authors, collected in patent US20060141030A1, “Method and composition for stable and controlled delivery of (-)-hydroxycitric acid” (priority 2003, published 2006).

What was measured:
[1] = test system: test subjects; settings: chronic administration; resting and exercising conditions
[2] = test system: human hepatoma cell line Hep G2
[3] = test system: experimental animals; settings: single large oral dose or two divided oral doses totaling one fourth of it; high-sugar diet
[4] = test system: middle-aged rats; settings: 30% fat diet

Compound	respiratory exchange ratio [1]	incorporation of [1,5-14C]citrate into fatty acids and cholesterol ([2]; Hep G2, HCA 0.5 mM or higher, 2.5 h and 18 h incubations)	cholesterol biosynthesis, of the control value ([2]; Hep G2, incorporation from 3H2O) [%]	reduction in food consumption [3] [%]	protein and fat as percentage of body weight [4]
O=C(O)CC(O)(C(=O)O)C(O)C(=O)O (single isomer, unassigned; (-)) [HCA, (−)-Hydroxycitric acid]	significantly lower	strongly inhibited	27	≥ 10	–
O=C([O-])CC(O)(C(=O)[O-])C(O)C(=O)[O-].[K+].[K+].[K+] (centres unmarked) [potassium HCA]	–	–	–	–	increased protein as a percentage of body weight while reducing fat as a percentage of body weight
